Laboratory results published in PubChem BioAssay (NCI).
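Exposure lasted 48 hours, with cells grown in 96-well plates and compounds tested at five concentrations. Definition used: TGI = concentration required for complete inhibition of growth.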

What was measured:
Test in all cases: DTP human tumour cell line panel, 48 h
SF-295 CNS = test system: SF-295 CNS
UACC-62 melanoma = test system: UACC-62 melanoma
HS 578T breast = test system: HS 578T breast
NCI/ADR-RES ovarian = test system: NCI/ADR-RES ovarian
ACHN renal = test system: ACHN renal
HCC-2998 colon = test system: HCC-2998 colon
UO-31 renal = test system: UO-31 renal
COLO 205 colon = test system: COLO 205 colon
SK-MEL-2 melanoma = test system: SK-MEL-2 melanoma
EKVX NSCLC = test system: EKVX NSCLC

| Compound | TGI (SF-295 CNS) [µM] | TGI (UACC-62 melanoma) [µM] | TGI (HS 578T breast) [µM] | TGI (NCI/ADR-RES ovarian) [µM] | TGI (ACHN renal) [µM] | TGI (HCC-2998 colon) [µM] | TGI (UO-31 renal) [µM] | TGI (COLO 205 colon) [µM] | TGI (SK-MEL-2 melanoma) [µM] | TGI (EKVX NSCLC) [µM] |
| --- | --- | --- | --- | --- | --- | --- | --- | --- | --- | --- |
| COc1cc2c(cc1OCCCC(=O)Nc1cc(C(=O)Nc3cc(C(=O)Nc4cc(C(=O)NCCCN(C)C)n(C)c4)n(C)c3)n(C)c1)N=C[C@@H]1CCCN1C2=O | 26.4 | 6.53 | > 25.2 | 6.21 | 2.99 | 28.2 | 3.06 | 3.15 | 6.79 | 7.57 |
| COc1cc(Oc2nc3ccccc3nc2C(=O)O)cc(OC)c1OC | > 100 | > 100 | > 100 | > 100 | > 100 | > 100 | > 100 | > 100 | > 100 | > 100 |
| COc1cc(C2c3cc4c(cc3C(O)C3CCC(=O)N23)OCO4)cc(OC)c1OC (stereo not given) | 32.6 | > 100 | > 100 | > 100 | > 100 | > 100 | 71.2 | > 100 | > 100 | > 100 |
| CC1(CCCC2(C)CCNC2=O)OCCO1 (stereo not given) | > 10 | > 10 | > 10 | > 10 | > 10 | > 10 | > 10 | > 10 | > 10 | > 10 |
| O=C1Cc2c(-c3ccc(Cl)cc3)cc(-c3ccccc3)nc2-c2ccccc2N1 | 26.6 | > 58.9 | 29.1 | 26.4 | 28.3 | 24.2 | 14.8 | 12.9 | 97.7 | > 56.8 |
| O=C1NN=C(c2ccc(Cl)cc2)CC1C1C(=O)N(c2ccccc2)N=C1c1ccccc1 (stereo not given) | > 100 | 72.8 | 93.9 | > 100 | > 100 | 91.7 | 56.6 | > 100 | 78.7 | > 100 |
| Brc1ccc2c(-c3nc(-c4c[nH]c5ccccc45)cs3)c[nH]c2c1 | > 100 | > 100 | > 100 | > 100 | > 100 | > 100 | > 100 | > 79.7 | > 84.3 | > 100 |
| O=C(Nc1ccccc1)c1cc2c(cc1Cl)Sc1nccn1S2(=O)=O | > 100 | 38.4 | > 84.4 | > 100 | > 83.1 | 37.7 | > 100 | > 56.6 | 58.3 | 60.5 |
| CCCSc1cc(Cl)c(C)cc1S(=O)(=O)n1ccnc1OCCCN(C)C | > 100 | > 100 | > 100 | > 100 | > 100 | > 100 | > 100 | > 100 | > 100 | > 100 |
| c1ccc2c(c1)c1c(n2CCOCCN2CCCCC2)CCCC1 | 29.7 | 28.7 | 32.1 | 23.4 | 27.7 | 23.6 | 24.6 | 26 | 21.1 | 32.8 |
| Nn1c(Cc2ccc(Cl)cc2)n[nH]c1=O | > 100 | > 100 | > 100 | > 100 | > 100 | > 100 | > 100 | > 100 | > 100 | > 100 |
| CN(Cc1c2ccccc2cc2ccccc12)S(=O)(=O)c1ccc(-c2c3nc(c(-c4ccc(S(=O)(=O)N(C)Cc5c6ccccc6cc6ccccc56)cc4)c4ccc([nH]4)c(-c4ccc(S(=O)(=O)N(C)Cc5c6ccccc6cc6ccccc56)cc4)c4nc(c(-c5ccc(S(=O)(=O)N(C)Cc6c7ccccc7cc7ccccc67)cc5)c5ccc2[nH]5)C=C4)C=C3)cc1 | > 100 | > 100 | > 100 | > 100 | > 100 | > 100 | > 100 | > 100 | > 100 | > 100 |
| COc1cc2c(cc1OC)C1CN3C(=O)CCC3C(O)C1c1cc(OC)c(OC)cc1-2 (stereo not given) | > 100 | > 100 | > 100 | > 100 | > 100 | > 100 | > 100 | > 100 | > 100 | > 100 |
| CCCC1NC(C#N)(C#N)C(CCC)NC1(C#N)C#N (stereo not given) | > 100 | > 100 | 22.6 | 15.2 | > 100 | > 58.2 | > 100 | 12.7 | > 100 | > 100 |
| [O-][n+]1onc2c3nn(-c4ccccc4)nc3ccc21 | > 100 | > 100 | > 88.6 | > 100 | > 100 | 44.9 | > 100 | > 100 | > 100 | > 100 |
| CC/C(Cl)=N\OC(=O)Nc1ccc(OC)cc1 | 31.1 | 24.6 | 52 | 15 | 3.5 | 15.7 | 20.8 | 3.92 | 33 | 11.9 |
| O=C(O)CC(NC(=O)Nc1ccc([N+](=O)[O-])cc1)C(=O)Nc1ccc([N+](=O)[O-])cc1 (stereo not given) | > 100 | > 100 | > 100 | > 100 | > 100 | > 100 | > 100 | > 100 | > 100 | > 100 |
